Assay results reported in article PMC11840258, “Detection of chimeric alpha-defensin transcripts and peptides in mouse Paneth cells” (Frontiers in Immunology, 2025).
No end group written: not given here.

Experiments:
Type in all cases: cell-based
[1] = test system: Citrobacter rodentium strain ICC 169; assay: Anti-bacterial activity assay (colony counts after peptide titration); settings: 1U = dose needed to kill 50% of the bacteria (IC50), peptide 20, 10, 4, 2 µg/ml, 4 h at 37°C, colonies counted on LB agar, logistic 4 parameter model (drda), means of two independent experiments
Experimental: (§1) Antimicrobial essays for the synthetic proteins were performed against Escherichia coli, Staphylococcus nepalensis, Enterococcus fecalis and Citrobacter rodentium. The first three species are common in small intestine in mice (where Paneth cells are relevant), while C. rodentium is a common pathogen in mice. To obtain cultures of the first three species, C57BL/6J mice were euthanized, ileum content harvested and diluted in sterile PBS and plated out on standard LB plates, overnight. Colonies were picked and species identified using Maldi-Toff [as previously described ([19])]. The relevant pure colonies of these three species were then grown on plates, identified once again, and grown in liquid LB and frozen at -80°C. The C. rodentium culture was strain ICC 169 and was obtained from ATCC.
(§2) Bacteria were grown in LB broth at 37°C in an incubation shaker (100rpm) until and OD between 0.8-1. For each peptide, a dilution set (800 µl/peptide) derived from the stock solution was prepared in such manner to obtain a final volume of 1 ml with peptide concentrations of 20 µg/ml, 10 µg/ml, 4 µg/ml and 2 µg/ml. Bacteria grown in LB broth where diluted to OD 0.2. For each bacterium, 200 µl of the OD 0.2 solution was added to each of the peptide dilutions and incubated at 37°C for four hours at 55 rpm. After incubation 100 µl of the incubated mixture was plated out on LB agar plates at two concentrations: undiluted and 1:10 diluted. The plates were incubated at 37°C overnight after which colonies per plate were counted and tabulated. The highest plated out concentration that still had individually distinguishable colonies was used.
(§3) The R package “drda” ([20]) was used to perform a dose-response analysis using the logistic 4 parameter model. The concentration that inhibits growth by 50%, IC50, was obtained from the models for each combination of bacterium and peptide and converted into per peptide specific activity.

[2] = test system: Enterococcus fecalis; assay: as above; settings: 1U = dose needed to kill 50% of the bacteria (IC50); peptide 20, 10, 4, 2 µg/ml; 4 h at 37°C; colonies counted on LB agar; logistic 4 parameter model (drda); isolate from mouse ileum; means of two independent experiments
Experimental: as §1, §2, §3

[3] = test system: Escherichia coli; assay: as above; settings: 1U = dose needed to kill 50% of the bacteria (IC50); peptide 20, 10, 4, 2 µg/ml; 4 h at 37°C; colonies counted on LB agar; logistic 4 parameter model (drda); isolate from mouse ileum; means of two independent experiments
Experimental: as §1, §2, §3

[4] = test system: Staphylococcus nepalensis; assay: as above; settings: 1U = dose needed to kill 50% of the bacteria (IC50); peptide 20, 10, 4, 2 µg/ml; 4 h at 37°C; colonies counted on LB agar; logistic 4 parameter model (drda); isolate from mouse ileum; means of two independent experiments
Experimental: as §1, §2, §3

[5] = test system: E. coli, C. rodentium, S. nepalensis, E. fecalis; assay: Anti-bacterial activity assay, over the four bacterial species; settings: 1U = dose needed to kill 50% of the bacteria (IC50)
Experimental: as §1
as §2, with “After incubation 100 µl of the incubated mixture was plated out on LB agar plates at two concentrations: undiluted and 1:10 diluted.” left out, “The highest plated out concentration that still had individually distinguishable colonies was used.” left out

Substance | Specific activity of cell killing, C. rodentium [1] | Specific activity of cell killing, E. fecalis [2] | Specific activity of cell killing, E. coli [3] | Specific activity of cell killing, S. nepalensis [4] | Specific activity of cell killing, Mean [5]
Defa24: custom-synthesized mature peptide of parental mouse α-defensin Defa24 (LRDLVCYCRARGCKGRERMNGTCSKGHLLYMLCC; ends and bridges not checked; cysteine pairing not given here; UniProt Q5G865 59-92, looked up) | 77 U/mg | 23 U/mg | 122 U/mg | 8 U/mg | 58 U/mg
Defa31: custom-synthesized mature peptide of parental mouse α-defensin Defa31 (PRCPPCPRCSWCPRCPTCPRCNCNPK; ends and bridges not checked; cysteine pairing not given here; UniProt P50715 66-91, looked up) | 314 U/mg | 189 U/mg | 397 U/mg | 437 U/mg | 334 U/mg
